Test system: SNB19 cells
Assay: Wound healing assay
Assay type: cell-based, human
Conditions: 48 hrs after scratching; scratch 2 days after start of treatment
Method: The wound healing assay was carried out according to Zhang et al. (2018) J Mol Neurosci 64:262-272. At the designated time, five randomly selected fields at the lesion border were acquired under an inverted microscope (Olympus, IX71). The mean number of cells at the control group was defined as 100% and the mean number of other groups was normalised by means of the control group, respectively.

## verteporfin
  wound healing (cell migration): healed more slowly

Source: US20250302999A1, “TRANSGENE CASSETTES AND EPIGENETIC SILENCERS FOR THE TREATMENT OF DISORDERS” (Ospedale San Raffaele S.r.I., priority 2022, published 2025)
